Test results as given in US20260158017A1, “KIF18A INHIBITOR” (WIGEN BIOMEDICINE TECHNOLOGY (SHANGHAI) CO., LTD., priority 2021, published 2026).

test system: HCT116 cells; experiment: In vitro anti-proliferative activity against HCT116 cells (intracellular ATP content, 72 h); type: cell-based; conditions: Homo sapiens, HCT-116, 72 h after dosing
Procedure: Biological Example 3. In Vitro Anti-Proliferative Activity of the Compounds of the Present Invention Against HCT116 Cells
(§1) HCT116 cells were seeded on a 384-well plate at 3000 cells/well. After overnight adherence culture, DMSO or the compounds serially 1:5-diluted from 5 μM were added. The viability of the cells was assessed 72 h after dosing by measuring the intracellular ATP content. The inhibition percentages of viable cells by the compounds were calculated by comparing with the DMSO group, and the IC 50 values were also calculated.

Structure (SMILES)	IC50 [nM]
CNc1ccc(NC(=O)c2ccc(NS(=O)(=O)CCO)cc2N2CCC3(CC2)CC3)nc1N1CCC(F)(F)CC1 [Compound 643]	> 10000
CN(C)c1ccc(NC(=O)c2ccc(NS(=O)(=O)CCO)cc2N2CCC3(CC2)CC3)nc1N1CCC(F)(F)CC1 [Compound 647]	> 10000
O=C(Nc1ccc(OC(F)(F)F)c(N2CCC(F)(F)CC2)c1)c1ccc(NS(=O)(=O)CCO)cc1N1CCC2(CC1)CC2 [Compound 655]	> 10000
Nc1ccc(NC(=O)c2ccc(NS(=O)(=O)CCO)cc2N2CCC3(CC2)CC3)cc1N1CCC(F)(F)CC1 [Compound 701]	> 10000

biological target: T1, Recombinant human KIF18A (1-467His-tagged) protein (Homo sapiens, UniProt Q8NI77); experiment: KIF18A enzyme assay (microtubule-stimulated ATPase activity, ADP-Glo); type: biochemical; conditions: 30 nM KIF18A, 75 μM ATP, 30 μg/mL pig microtubules; read-out: Inhibitory activity against KIF18A IC50
T1 construct: Recombinant human KIF18A (1-467His-tagged) protein; His; made in house
Procedure, shortened: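 Buffer 15 mM Tris pH 7.5, 10 mM MgCl2, 0.01% Pluronic F-68, 1 μM paclitaxel, 30 μg/mL pig microtubules; reactions at room temperature. IC50 from inhibition relative to DMSO.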

T1 sequence (Q8NI77 1-467): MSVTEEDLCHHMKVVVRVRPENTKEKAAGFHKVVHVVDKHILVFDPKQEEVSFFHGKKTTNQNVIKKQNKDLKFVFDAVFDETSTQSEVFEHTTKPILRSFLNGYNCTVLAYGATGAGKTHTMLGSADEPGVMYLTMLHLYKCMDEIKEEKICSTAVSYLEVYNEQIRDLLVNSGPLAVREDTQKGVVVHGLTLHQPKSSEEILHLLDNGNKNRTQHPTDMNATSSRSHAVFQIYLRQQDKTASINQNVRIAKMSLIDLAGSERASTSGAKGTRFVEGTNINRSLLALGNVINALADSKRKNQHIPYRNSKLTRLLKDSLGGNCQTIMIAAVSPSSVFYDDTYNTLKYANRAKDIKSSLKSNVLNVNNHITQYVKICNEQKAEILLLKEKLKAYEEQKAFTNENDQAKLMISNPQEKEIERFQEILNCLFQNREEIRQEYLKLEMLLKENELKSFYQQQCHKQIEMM
T1 sequence (P02550 whole entry partner): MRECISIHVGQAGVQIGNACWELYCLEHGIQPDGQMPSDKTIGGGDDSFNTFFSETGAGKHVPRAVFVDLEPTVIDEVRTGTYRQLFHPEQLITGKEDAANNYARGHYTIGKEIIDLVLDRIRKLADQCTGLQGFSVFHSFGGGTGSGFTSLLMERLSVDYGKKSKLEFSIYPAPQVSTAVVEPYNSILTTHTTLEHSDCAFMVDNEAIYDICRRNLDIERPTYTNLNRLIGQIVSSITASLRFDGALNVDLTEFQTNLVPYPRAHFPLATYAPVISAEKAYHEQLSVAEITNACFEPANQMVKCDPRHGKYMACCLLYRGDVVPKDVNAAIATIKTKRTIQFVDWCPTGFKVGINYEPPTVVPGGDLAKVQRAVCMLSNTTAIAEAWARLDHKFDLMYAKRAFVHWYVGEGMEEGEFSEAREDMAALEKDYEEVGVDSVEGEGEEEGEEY
T1 sequence (P02554 whole entry partner): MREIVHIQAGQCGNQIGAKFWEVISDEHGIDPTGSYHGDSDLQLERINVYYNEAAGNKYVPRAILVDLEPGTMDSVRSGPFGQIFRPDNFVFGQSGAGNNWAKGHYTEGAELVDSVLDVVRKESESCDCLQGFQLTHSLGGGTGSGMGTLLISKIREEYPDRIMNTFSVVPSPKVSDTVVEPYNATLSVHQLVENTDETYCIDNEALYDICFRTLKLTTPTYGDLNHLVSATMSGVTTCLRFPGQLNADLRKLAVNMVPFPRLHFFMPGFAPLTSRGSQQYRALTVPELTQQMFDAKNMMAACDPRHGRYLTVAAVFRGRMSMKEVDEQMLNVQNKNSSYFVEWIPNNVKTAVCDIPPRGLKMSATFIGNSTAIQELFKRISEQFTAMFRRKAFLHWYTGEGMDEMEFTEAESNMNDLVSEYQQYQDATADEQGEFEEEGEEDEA

Structure (SMILES)	IC50 [nM]
CSc1ccc(NC(=O)c2ccc(NS(=O)(=O)CCO)cc2N2CCC3(CC2)CC3)cc1N1CCC(F)CC1 [Compound 585]	≤ 100
CSc1ccc(NC(=O)c2ccc(NS(=O)(=O)CCO)cc2N2CCC3(CC2)CC3)cc1N1CC2CC2C1 (stereo not drawn) [Compound 586]	≤ 100
CSc1ccc(NC(=O)c2ccc(NS(=O)(=O)CCO)cc2N2CCC3(CC2)CC3)cc1NC(C)(C)CO [Compound 587]	≤ 100
CSc1ccc(NC(=O)c2ccc(NS(=O)(=O)CCO)cc2N2CCC3(CC2)CC3)cc1N1CCOCC1 [Compound 588]	≤ 100
CSc1ccc(NC(=O)c2ccc(NS(=O)(=O)[C@@H](C)CO)cc2N2CCC3(CC2)CC3)cc1N1CCC(F)(F)CC1 [Compound 589]	≤ 100
CSc1ccc(NC(=O)c2ccc(NS(=O)(=O)[C@H](C)CO)cc2N2CCC3(CC2)CC3)cc1N1CCC(F)(F)CC1 [Compound 590]	≤ 100
CSc1ccc(NC(=O)c2ccc(NS(=O)(=O)[C@@H](C)CO)cc2N2CCC3(CC2)CC3)cc1N1CCO[C@H](C)C1 [Compound 591]	≤ 100
CSc1ccc(NC(=O)c2ccc(NS(=O)(=O)[C@H](C)CO)cc2N2CCC3(CC2)CC3)cc1N1CCO[C@H](C)C1 [Compound 592]	≤ 100
CSc1ccc(NC(=O)c2ccc(NS(=O)(=O)CCO)cc2N2CCC3(CC2)CC3)nc1N1CCO[C@H](C)C1 [Compound 594]	≤ 100
CSc1ccc(NC(=O)c2ccc(NS(=O)(=O)CCO)cc2N2CCC3(CC2)CC3)nc1N1CCO[C@@H](C)C1 [Compound 595]	≤ 100
CSc1ccc(NC(=O)c2ccc(NS(=O)(=O)CCO)cc2N2CCC3(CC2)CC3)nc1N1CC(F)(F)C1 [Compound 596]	≤ 100
CSc1ccc(NC(=O)c2ccc(NS(=O)(=O)CCO)cc2N2CCC3(CC2)CC3)nc1OCCC(F)(F)F [Compound 597]	≤ 100
CSc1ccc(NC(=O)c2ccc(NS(=O)(=O)CCO)cc2N2CCC3(CC2)CC3)nc1N1CCC2(CC2)C1 [Compound 598]	≤ 100
CSc1ccc(NC(=O)c2ccc(NS(=O)(=O)CCO)cc2N2CCC3(CC2)CC3)nc1OC1CCC1 [Compound 599]	≤ 100
CSc1ccc(NC(=O)c2ccc(NS(=O)(=O)CCO)cc2N2CCC3(CC2)CC3)nc1N1CCC(C)(F)C1 (stereo not drawn) [Compound 600]	≤ 100
CSc1ccc(NC(=O)c2ccc(NS(=O)(=O)CCO)cc2N2CCC3(CC2)CC3)nc1N1CCC(F)CC1 [Compound 601]	≤ 100
CSc1ccc(NC(=O)c2ccc(NS(=O)(=O)CCO)cc2N2CCC3(CC2)CC3)nc1N1CC2CC2C1 (stereo not drawn) [Compound 602]	≤ 100
CSc1ccc(NC(=O)c2ccc(NS(=O)(=O)CCO)cc2N2CCC3(CC2)CC3)nc1NC(C)(C)CO [Compound 603]	≤ 100
CSc1ccc(NC(=O)c2ccc(NS(=O)(=O)CCO)cc2N2CCC3(CC2)CC3)nc1N1CCOCC1 [Compound 604]	≤ 100
CSc1ccc(NC(=O)c2ccc(NS(=O)(=O)[C@@H](C)CO)cc2N2CCC3(CC2)CC3)nc1N1CCC(F)(F)CC1 [Compound 605]	≤ 100
CSc1ccc(NC(=O)c2ccc(NS(=O)(=O)[C@H](C)CO)cc2N2CCC3(CC2)CC3)nc1N1CCC(F)(F)CC1 [Compound 606]	≤ 100
CSc1ccc(NC(=O)c2ccc(NS(=O)(=O)[C@@H](C)CO)cc2N2CCC3(CC2)CC3)nc1N1CCO[C@H](C)C1 [Compound 607]	≤ 100
CSc1ccc(NC(=O)c2ccc(NS(=O)(=O)[C@H](C)CO)cc2N2CCC3(CC2)CC3)nc1N1CCO[C@H](C)C1 [Compound 608]	≤ 100
CSc1ccc(NC(=O)c2cnc(NS(=O)(=O)CCO)cc2N2CCC3(CC2)CC3)cc1N1CCC(F)(F)CC1 [Compound 609]	≤ 100
CSc1ccc(NC(=O)c2cnc(NS(=O)(=O)CCO)cc2N2CCC3(CC2)CC3)cc1N1CCO[C@H](C)C1 [Compound 610]	≤ 100
CSc1ccc(NC(=O)c2cnc(NS(=O)(=O)CCO)cc2N2CCC3(CC2)CC3)cc1N1CCO[C@@H](C)C1 [Compound 611]	≤ 100
CSc1ccc(NC(=O)c2cnc(NS(=O)(=O)CCO)cc2N2CCC3(CC2)CC3)cc1N1CC(F)(F)C1 [Compound 612]	≤ 100
CSc1ccc(NC(=O)c2cnc(NS(=O)(=O)CCO)cc2N2CCC3(CC2)CC3)cc1OCCC(F)(F)F [Compound 613]	≤ 100

Structure (SMILES)	IC50 [nM]
CSc1ccc(NC(=O)c2cnc(NS(=O)(=O)CCO)cc2N2CCC3(CC2)CC3)cc1N1CCC2(CC2)C1 [Compound 614]	≤ 100
CSc1ccc(NC(=O)c2cnc(NS(=O)(=O)CCO)cc2N2CCC3(CC2)CC3)cc1OC1CCC1 [Compound 615]	≤ 100
CSc1ccc(NC(=O)c2cnc(NS(=O)(=O)CCO)cc2N2CCC3(CC2)CC3)cc1N1CCC(C)(F)C1 (stereo not drawn) [Compound 616]	≤ 100
CSc1ccc(NC(=O)c2cnc(NS(=O)(=O)CCO)cc2N2CCC3(CC2)CC3)cc1N1CCC(F)CC1 [Compound 617]	≤ 100
CSc1ccc(NC(=O)c2cnc(NS(=O)(=O)CCO)cc2N2CCC3(CC2)CC3)cc1N1CC2CC2C1 (stereo not drawn) [Compound 618]	≤ 100
CSc1ccc(NC(=O)c2cnc(NS(=O)(=O)CCO)cc2N2CCC3(CC2)CC3)cc1NC(C)(C)CO [Compound 619]	≤ 100
CSc1ccc(NC(=O)c2cnc(NS(=O)(=O)CCO)cc2N2CCC3(CC2)CC3)cc1N1CCOCC1 [Compound 620]	≤ 100
CSc1ccc(NC(=O)c2cnc(NS(=O)(=O)[C@@H](C)CO)cc2N2CCC3(CC2)CC3)cc1N1CCC(F)(F)CC1 [Compound 621]	≤ 100
CSc1ccc(NC(=O)c2cnc(NS(=O)(=O)[C@H](C)CO)cc2N2CCC3(CC2)CC3)cc1N1CCC(F)(F)CC1 [Compound 622]	≤ 100
CSc1ccc(NC(=O)c2cnc(NS(=O)(=O)[C@@H](C)CO)cc2N2CCC3(CC2)CC3)cc1N1CCO[C@H](C)C1 [Compound 623]	≤ 100
CSc1ccc(NC(=O)c2cnc(NS(=O)(=O)[C@H](C)CO)cc2N2CCC3(CC2)CC3)cc1N1CCO[C@H](C)C1 [Compound 624]	≤ 100
CSc1ccc(NC(=O)c2cnc(NS(=O)(=O)CCO)cc2N2CCC3(CC2)CC3)nc1N1CCC(F)(F)CC1 [Compound 625]	≤ 100
CSc1ccc(NC(=O)c2cnc(NS(=O)(=O)CCO)cc2N2CCC3(CC2)CC3)nc1N1CCO[C@H](C)C1 [Compound 626]	≤ 100
CSc1ccc(NC(=O)c2cnc(NS(=O)(=O)CCO)cc2N2CCC3(CC2)CC3)nc1N1CCO[C@@H](C)C1 [Compound 627]	≤ 100
CSc1ccc(NC(=O)c2cnc(NS(=O)(=O)CCO)cc2N2CCC3(CC2)CC3)nc1N1CC(F)(F)C1 [Compound 628]	≤ 100
CSc1ccc(NC(=O)c2cnc(NS(=O)(=O)CCO)cc2N2CCC3(CC2)CC3)nc1OCCC(F)(F)F [Compound 629]	≤ 100
CSc1ccc(NC(=O)c2cnc(NS(=O)(=O)CCO)cc2N2CCC3(CC2)CC3)nc1N1CCC2(CC2)C1 [Compound 630]	≤ 100
CSc1ccc(NC(=O)c2cnc(NS(=O)(=O)CCO)cc2N2CCC3(CC2)CC3)nc1OC1CCC1 [Compound 631]	≤ 100
CSc1ccc(NC(=O)c2cnc(NS(=O)(=O)CCO)cc2N2CCC3(CC2)CC3)nc1N1CCC(C)(F)C1 (stereo not drawn) [Compound 632]	≤ 100
CSc1ccc(NC(=O)c2cnc(NS(=O)(=O)CCO)cc2N2CCC3(CC2)CC3)nc1N1CCC(F)CC1 [Compound 633]	≤ 100
CSc1ccc(NC(=O)c2cnc(NS(=O)(=O)CCO)cc2N2CCC3(CC2)CC3)nc1N1CC2CC2C1 (stereo not drawn) [Compound 634]	≤ 100
CSc1ccc(NC(=O)c2cnc(NS(=O)(=O)CCO)cc2N2CCC3(CC2)CC3)nc1NC(C)(C)CO [Compound 635]	≤ 100
CSc1ccc(NC(=O)c2cnc(NS(=O)(=O)CCO)cc2N2CCC3(CC2)CC3)nc1N1CCOCC1 [Compound 636]	≤ 100
CSc1ccc(NC(=O)c2cnc(NS(=O)(=O)[C@@H](C)CO)cc2N2CCC3(CC2)CC3)nc1N1CCC(F)(F)CC1 [Compound 637]	≤ 100
CSc1ccc(NC(=O)c2cnc(NS(=O)(=O)[C@H](C)CO)cc2N2CCC3(CC2)CC3)nc1N1CCC(F)(F)CC1 [Compound 638]	≤ 100
CSc1ccc(NC(=O)c2cnc(NS(=O)(=O)[C@@H](C)CO)cc2N2CCC3(CC2)CC3)nc1N1CCO[C@H](C)C1 [Compound 639]	≤ 100
CSc1ccc(NC(=O)c2cnc(NS(=O)(=O)[C@H](C)CO)cc2N2CCC3(CC2)CC3)nc1N1CCO[C@H](C)C1 [Compound 640]	≤ 100

test system: HT-29 cells; experiment: In vitro anti-proliferative activity against HT-29 cells (intracellular ATP content, 72 h); type: cell-based; conditions: Homo sapiens, 72 h after dosing
Procedure: Biological Example 2. In Vitro Anti-Proliferative Activity of the Compounds of the Present Invention Against HT-29 Cells
as §1, with “HT-29” for “HCT116”, “IC50” for “IC 50”

Structure (SMILES)	IC50 [nM]
CNc1ccc(NC(=O)c2ccc(NS(=O)(=O)CCO)cc2N2CCC3(CC2)CC3)nc1N1CCC(F)(F)CC1 [Compound 643]	34.2
CN(C)c1ccc(NC(=O)c2ccc(NS(=O)(=O)CCO)cc2N2CCC3(CC2)CC3)nc1N1CCC(F)(F)CC1 [Compound 647]	334
O=C(Nc1ccc(OC(F)(F)F)c(N2CCC(F)(F)CC2)c1)c1ccc(NS(=O)(=O)CCO)cc1N1CCC2(CC1)CC2 [Compound 655]	1170
Nc1ccc(NC(=O)c2ccc(NS(=O)(=O)CCO)cc2N2CCC3(CC2)CC3)cc1N1CCC(F)(F)CC1 [Compound 701]	76.7
